Patent US20210145802A1, “THERAPY FOR OPHTHALMOLOGICAL CONDITIONS” (WREN THERAPEUTICS LIMITED, priority 2018, published 2021)

Molecular target: T1, Aβ42 (Homo sapiens, UniProt P05067)
T1 construct: […]; made in house; host or cells: E. coli BL21 Gold (DE3)
Test: ThT kinetic assay of Aβ42 fibril formation (unseeded)
Assay type: biochemical
Conditions: 2 μM Aβ42; 5× drug:protein concentration
Description: The recombinant Aβ(M1-42) peptide ([…]-SNKGAIIGLMVGGVVIA [SEQ ID NO: 1]), here called Aβ42, was expressed in the E. coli BL21 Gold (DE3) strain (Stratagene, CA, U.S.A.) and purified as described previously with slight modifications. Briefly, the purification procedure involved sonication of E. coli cells, dissolution of inclusion bodies in 8 M urea, and ion exchange in batch mode on diethylaminoethyl cellulose resin and lyophylization. The lyophilized fractions were further purified using Superdex 75 HR 26/60 column (GE Healthcare, Buckinghamshire, U.K.) and eluates were analyzed using SDS-PAGE for the presence of the desired protein product. The fractions containing the recombinant protein were combined, frozen using liquid nitrogen, and lyophilized again.
Except for Netoglitazone, which was custom synthesised by GVK BIO, all small molecules were purchased with a purity greater than 99%. Small molecules were first solubilized in 100% DMSO to a concentration of 5 mM, and then diluted in the peptide solution to reach a final DMSO concentration of maximum 1-3%. We verified that the addition of DMSO in the reaction mixture has no effect on Aβ42 aggregation.
Solutions of monomeric peptides were prepared by dissolving the lyophilized Aβ42 peptide in 6 M GuHCl. Monomeric forms were purified from potential oligomeric species and salt using a Superdex 75 10/300 GL column (GE Healthcare) at a flowrate of 0.5 mL/min, and were eluted in 20 mM sodium phosphate buffer, pH 8 supplemented with 200 μM EDTA and 0.02% NaN3. The centre of the peak was collected, and the peptide concentration was determined from the absorbance of the integrated peak area using ε280=1490 L mol^−1 cm^−1. The obtained monomer was diluted with buffer to the desired concentration and supplemented with 20 μM Thioflavin T (ThT) from a 1 mM stock. All samples were prepared in low binding Eppendorf tubes on ice using careful pipetting to avoid introduction of air bubbles. Each sample was then pipetted into multiple wells of a 96-well half-area, low-binding, clear bottom and PEG coating plate (Corning 3881), 80 μL per well. Aβ42 kinetics have been performed in the absence or the presence of Netoglitazone, Mitoglitazone, Rosiglotazone, Rivoglitazone, Pioglitazone, Ciglitazone, Englitazone, Darglitazone, Troglitazone and B alaglitazone.

T1 sequence (P05067 671-713): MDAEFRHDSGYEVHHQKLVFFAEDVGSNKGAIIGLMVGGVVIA

SMILES: Cn1c(COc2ccc(CC3SC(=O)NC3=O)cc2)nc2ccccc2c1=O (stereo not shown) [Balaglitazone]
- delay of Aβ42 aggregation: little to no delay

SMILES: COc1ccc2nc(COc3ccc(CC4SC(=O)NC4=O)cc3)n(C)c2c1 (stereo not shown) [Rivoglitazone]
- delay of Aβ42 aggregation: little to no delay

SMILES: CCc1ccc(C(=O)COc2ccc(CC3SC(=O)NC3=O)cc2)nc1 (stereo not shown) [Mitoglitazone]
- delay of Aβ42 aggregation: little to no delay

SMILES: Cc1oc(-c2ccccc2)nc1CCC(=O)c1ccc(CC2SC(=O)NC2=O)cc1 (stereo not shown) [Darglitazone]
- delay of Aβ42 aggregation: observed to delay
